Consider 17 compounds from ChEMBL document CHEMBL4385643, “Design of a brain-penetrant CDK4/6 inhibitor for glioblastoma” (Bioorg Med Chem Lett, 2019).

Among the targets are CDK6/cyclin D3 (Homo sapiens, UniProt Q00534); CDK1/Cyclin A (Homo sapiens, UniProt P06493); CDK4/Cyclin D3 (Homo sapiens, UniProt P11802).
Data set [1] deals with Cyclin-dependent kinase 2/cyclin E1 (Homo sapiens, UniProt P24941). Description: Inhibition of human full length GST-tagged CDK2 (1 to 298(end) amino acids)/Cyclin E1 (1 to 410(end) amino acids) expressed in baculovirus expression system assessed as inhibition constant using Ulight-4E-BP1 as substrate preincubated for 30 mins followed by substrate addition and incubated for 90 mins by TR-FRET assay.

The test system of another data set is human MDR1. Description: in vitro. As to conditions: dog, MDCK-MDR1.
A short description of data set [2]: Lipophilicity, log D of the compound by microscale shake flask method. The class given is physicochemical. As to conditions: octanol/water.
In the next data set the test system is mouse Bcrp1. Description: in vitro. The note with it: dog.

Sequence of CDK1/Cyclin A (P06493 whole entry): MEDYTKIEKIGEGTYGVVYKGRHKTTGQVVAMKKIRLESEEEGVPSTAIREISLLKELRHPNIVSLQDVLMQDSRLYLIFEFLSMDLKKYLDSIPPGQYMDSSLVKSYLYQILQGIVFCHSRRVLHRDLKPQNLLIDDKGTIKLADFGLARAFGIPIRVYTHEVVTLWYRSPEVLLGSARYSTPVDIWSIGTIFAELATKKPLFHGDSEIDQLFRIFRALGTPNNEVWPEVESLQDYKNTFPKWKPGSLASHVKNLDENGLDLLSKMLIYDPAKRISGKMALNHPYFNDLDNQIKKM
Sequence of CDK1/Cyclin A (P20248 whole entry, further chain): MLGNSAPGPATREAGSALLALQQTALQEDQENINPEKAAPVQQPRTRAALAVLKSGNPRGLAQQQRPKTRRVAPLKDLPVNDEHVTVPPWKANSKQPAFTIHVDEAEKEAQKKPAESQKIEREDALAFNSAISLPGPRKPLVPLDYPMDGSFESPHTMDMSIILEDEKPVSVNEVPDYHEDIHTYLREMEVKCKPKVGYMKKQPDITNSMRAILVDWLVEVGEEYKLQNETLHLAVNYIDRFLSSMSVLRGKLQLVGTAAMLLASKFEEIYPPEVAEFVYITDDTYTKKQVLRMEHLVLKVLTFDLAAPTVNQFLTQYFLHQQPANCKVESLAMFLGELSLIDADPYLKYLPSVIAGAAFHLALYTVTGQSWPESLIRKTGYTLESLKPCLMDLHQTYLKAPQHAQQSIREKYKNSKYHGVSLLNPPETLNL
Sequence of CDK4/Cyclin D3 (P11802 whole entry): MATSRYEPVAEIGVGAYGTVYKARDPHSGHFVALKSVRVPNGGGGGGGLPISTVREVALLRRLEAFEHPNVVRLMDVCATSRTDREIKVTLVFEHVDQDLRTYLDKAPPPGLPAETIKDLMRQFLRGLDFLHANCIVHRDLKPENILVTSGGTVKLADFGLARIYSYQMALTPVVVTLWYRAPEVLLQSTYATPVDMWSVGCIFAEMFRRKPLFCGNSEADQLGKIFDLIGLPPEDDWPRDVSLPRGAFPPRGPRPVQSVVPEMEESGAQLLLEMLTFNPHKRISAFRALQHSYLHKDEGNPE
Sequence of CDK4/Cyclin D3 (P30281 whole entry, further chain): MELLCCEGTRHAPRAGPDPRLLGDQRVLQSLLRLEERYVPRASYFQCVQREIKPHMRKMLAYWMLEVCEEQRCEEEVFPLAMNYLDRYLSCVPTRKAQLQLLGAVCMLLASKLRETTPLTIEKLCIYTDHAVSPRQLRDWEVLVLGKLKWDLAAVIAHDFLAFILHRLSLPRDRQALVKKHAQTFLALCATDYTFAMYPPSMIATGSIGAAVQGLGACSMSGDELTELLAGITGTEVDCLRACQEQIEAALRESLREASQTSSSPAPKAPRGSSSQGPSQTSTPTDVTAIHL
Sequence of CDK6/cyclin D3 (P30281 whole entry): as the sequence (P30281 whole entry, further chain) above
Sequence of CDK6/cyclin D3 (Q00534 whole entry): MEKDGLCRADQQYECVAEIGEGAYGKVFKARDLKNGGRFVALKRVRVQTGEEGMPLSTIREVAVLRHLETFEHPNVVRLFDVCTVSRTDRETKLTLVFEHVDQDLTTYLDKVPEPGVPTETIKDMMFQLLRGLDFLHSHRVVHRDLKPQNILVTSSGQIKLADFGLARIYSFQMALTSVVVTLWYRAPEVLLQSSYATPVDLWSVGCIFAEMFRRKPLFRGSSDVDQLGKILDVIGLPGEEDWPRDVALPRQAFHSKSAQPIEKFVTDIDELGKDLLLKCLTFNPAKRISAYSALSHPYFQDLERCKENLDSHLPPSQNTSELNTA
Description for CDK1/Cyclin A: Inhibition of human recombinant full length GST-tagged CDK1/Cyclin A2 expressed in sf9 insect cells assessed as inhibition constant using Ulight-4E-BP1 as substrate preincubated for 30 mins followed by substrate addition and incubated for 90 mins by TR-FRET assay
Description for CDK4/Cyclin D3: Inhibition of human full length GST-tagged CDK4 (1 to 303(end) amino acids)/Cyclin D3 (1 to 292(end) amino acids) expressed in baculovirus expression system assessed as inhibition constant using Ulight-4E-BP1 as substrate preincubated for 30 mins followed by substrate addition and incubated for 90 mins by TR-FRET assay
Description for CDK6/cyclin D3: Inhibition of human full length GST-tagged CDK6 (1 to 326(end) amino acids)/Cyclin D3 (1 to 292(end) amino acids) expressed in baculovirus expression system assessed as inhibition constant using Ulight-4E-BP1 as substrate preincubated for 30 mins followed by substrate addition and incubated for 90 mins by TR-FRET assay
Description for human MDR1: Efflux ratio in gMDCKI cells expressing human MDR1
Description for mouse Bcrp1: Efflux ratio in MDCK2 expressing mouse bcrp1

For orientation: Ki means the dissociation constant of the complex between target and ligand, obtained from inhibition or displacement. For `C[C@@H]1CCCCn2ncc(-c3nc(Nc4ccc(N5CC6(C5)CN(C5COC5)C6)cn4)ncc3F)c21`, the Ki at CDK6/cyclin D3 worked out at 4.3 nM; at CDK1/Cyclin A, 77 nM; on CDK4/Cyclin D3, 0.4 nM.
As for `C[C@@H]1CCCCn2ncc(-c3nc(Nc4ccc(N5CC6(CN(CCCF)C6)C5)cn4)ncc3F)c21`, the values for the Ki at CDK6/cyclin D3, at CDK1/Cyclin A and on CDK4/Cyclin D3 were 3.3 nM, 110 nM and less than 0.3 nM, respectively.
Taken in the same sequence, the figures for `C[C@@H]1CCCCn2ncc(-c3nc(Nc4ccc(C5CCN(C)CC5)cn4)ncc3F)c21` were 18 nM, 280 nM and 0.8 nM.
Taken in the same sequence, the figures for `C[C@H]1CCCn2ncc(-c3nc(Nc4ccc(N5CCN(C)CC5)cn4)ncc3F)c21` were 38 nM, 980 nM and 3.8 nM.
With `CN1CCN(c2ccc(Nc3ncc(F)c(-c4cnn5c4CCCC5)n3)nc2)CC1`, the inhibition constant (Ki) on CDK6/cyclin D3 is 40 nM; on CDK1/Cyclin A it was 2000 nM; at CDK4/Cyclin D3, 3.6 nM.
For the compound `CN1CCN(c2ccc(Nc3nccc(-c4cnn5c4CCCC5)n3)nc2)CC1`, the Ki amounted to 1900 nM on CDK6/cyclin D3, 29000 nM at CDK1/Cyclin A, 61 nM on CDK4/Cyclin D3 and 15000 nM in data set [1].
Turning to `CC(C)c1n[nH]cc1-c1ccnc(NC2CCCCC2)n1`, the Ki on CDK6/cyclin D3 came out at 450 nM; on CDK1/Cyclin A, 24 nM; on CDK4/Cyclin D3 it was 18 nM; in data set [1], 22 nM.
Take `C[C@@H]1CCCCn2ncc(-c3nc(Nc4ccc(N5CCOCC5)cn4)ncc3F)c21`: the inhibition constant Ki on CDK6/cyclin D3 is 7.9 nM; at CDK1/Cyclin A it was 70 nM; on CDK4/Cyclin D3, 0.4 nM.
Regarding `CN1CCN(c2ccc(Nc3ncc(F)c(-c4cnn5c4CCCCC5)n3)nc2)CC1`, the Ki on CDK6/cyclin D3 came to 24 nM; at CDK1/Cyclin A it was 1300 nM; at CDK4/Cyclin D3, 1.8 nM.
For the compound `C[C@@H]1CCCCn2ncc(-c3nc(Nc4ccc(N5CCC(N(C)C)CC5)cn4)ncc3F)c21`, the Ki at CDK6/cyclin D3 worked out at 10 nM; at CDK1/Cyclin A it was 210 nM; at CDK4/Cyclin D3, 1 nM.
Regarding `COCCN1CCC(Nc2nccc(-c3cnn4c3CCCC4)n2)CC1`, the Ki on CDK6/cyclin D3 is 7400 nM; at CDK1/Cyclin A, 5200 nM; at CDK4/Cyclin D3, 210 nM; in data set [1], 7500 nM.
Take `C[C@@H]1CCCn2ncc(-c3nc(Nc4ccc(N5CCN(C)CC5)cn4)ncc3F)c21`: the inhibition constant (Ki) at CDK6/cyclin D3 stood at 19 nM; on CDK1/Cyclin A, 770 nM; on CDK4/Cyclin D3, 1.4 nM.
Consider `CCN1CCN(Cc2ccc(Nc3ncc(F)c(-c4cnn5c4[C@H](C)CCCC5)n3)nc2)CC1`, for which the inhibition constant (Ki) was determined as 37 nM on CDK6/cyclin D3, 630 nM at CDK1/Cyclin A and 1.3 nM on CDK4/Cyclin D3.
As for `COCCN1CCC(Nc2nccc(-c3cn[nH]c3C(C)C)n2)CC1`, the Ki came out at 720 nM at CDK6/cyclin D3, 270 nM at CDK1/Cyclin A, 20 nM at CDK4/Cyclin D3 and 320 nM in data set [1].
Turning to `C[C@@H]1CCCCn2ncc(-c3nc(Nc4ccc(N5CC6(CN(C)C6)C5)cn4)ncc3F)c21`, the Ki is 1.7 nM at CDK6/cyclin D3, 63 nM on CDK1/Cyclin A and less than 0.3 nM at CDK4/Cyclin D3.
On to `CC(C)c1c(-c2nc(Nc3ccc(N4CCN(C)CC4)cn3)ncc2F)cnn1C`, for which the Ki amounted to 32 nM on CDK6/cyclin D3, 530 nM at CDK1/Cyclin A and 2.7 nM on CDK4/Cyclin D3.
Usually efflux ratio stands for the permeability from basolateral to apical divided by that in the opposite direction, in the common usage. Usually logD stands for the decadic logarithm of the distribution of all forms, ionised or not, between an organic phase and buffer at a given pH. Lower therefore signals lower lipophilicity. Regarding `C[C@@H]1CCCCn2ncc(-c3nc(Nc4ccc(N5CC6(CN(CCF)C6)C5)cn4)ncc3F)c21`, the results for the Ki on CDK6/cyclin D3, at CDK1/Cyclin A and on CDK4/Cyclin D3 were 1.6 nM, 52 nM and less than 0.3 nM, respectively. The efflux ratio in the data set with human MDR1 was 2; in the data set on mouse Bcrp1 it was 0.9. In data set [2], this compound came in with a logD of 2.8.
